In patent publication US20090311344A1, “Dosing Regimen” (priority 2008, published 2009):

Experiment: Multiple dose study in cancer subjects: treatment-emergent (serious) adverse events
Description: 46 subjects with cancer receiving platinum-based therapies were enrolled into 3 cohorts (N=16 in Cohort 1, 14 in Cohort 2, and 16 in Cohort 3). The subjects received the TPO mimetic peptide compound or placebo within 2 hours prior to the platinum-based chemotherapy on Day 1 of the first 2 cycles with a 21-day interval between each cycle. In addition to the Day 1 administration, gemcitabine administration was permitted on Day 8 of each cycle. Other chemotherapy medications were limited to dosing on Day 1 of each cycle only. Subjects were followed up for a total of 4 cycles of chemotherapy. Chemotherapy regimen continued beyond the first 4 cycles as per standard of care therapy. In the first cohort, 12 subjects received 1.5 μg/kg the TPO mimetic peptide compound and 4 subjects received placebo. In the second cohort 10 subjects received 3.0 μg/kg the TPO mimetic peptide compound and 4 subjects received placebo. In the third cohort, 12 subjects received 2.25 μg/kg the TPO mimetic peptide compound and 4 subjects received placebo. […] Therefore, a third cohort at a lower dose (2.25 μg/kg) was added to collect additional safety, tolerability, PD, and PK data.

Methoxypolyethyleneglycol20000-propionyl-L-Isoleucyl-L-Glutamyl-Glycyl-L-Prolyl-L-Threonyl-L-Leucyl-L-Arginyl-L-Glutaminyl-L-2-Naphthylalanyl-L-Leucyl-L-Alanyl-L-Alanyl-L-Arginyl-Sarcosyl-Ne-(methoxypolyethyleneglycol20000-propionyl-L-Isoleucyl-L-Glutamyl-Glycyl-L-Prolyl-L-Threonyl-L-Leucyl-L-Arginyl-L-Glutaminyl-L-2-Naphthylalanyl-L-Leucyl-L-Alanyl-L-Alanyl-L-Arginyl-Sarcosyl-)-Lysinamide [TPO mimetic peptide compound]
Adverse event: Musculoskeletal and connective tissue disorders (2.25 ug/kg, n of N = 12): 1
Adverse event: Nausea (2.25 ug/kg, n of N = 12): 2
Adverse event: Neoplasms benign, malignant and unspecified (incl cysts and polyps) (2.25 ug/kg, n of N = 12): 0
Adverse event: Nervous system disorders (2.25 ug/kg, n of N = 12): 3
Adverse event: Neuropathy peripheral (2.25 ug/kg, n of N = 12): 0
Adverse event: Neutropenia (2.25 ug/kg, n of N = 12): 4
Adverse event: Oedema (2.25 ug/kg, n of N = 12): 1
Adverse event: Oedema peripheral (2.25 ug/kg, n of N = 12): 0
Adverse event: Pain (2.25 ug/kg, n of N = 12): 0
Adverse event: Pain in extremity (2.25 ug/kg, n of N = 12): 1
Adverse event: Paraesthesia (2.25 ug/kg, n of N = 12): 0
Adverse event: Peripheral motor neuropathy (2.25 ug/kg, n of N = 12): 0
Adverse event: Peripheral sensory neuropathy (2.25 ug/kg, n of N = 12): 0
Adverse event: Platelet count decreased (2.25 ug/kg, n of N = 12): 0
Adverse event: Psychiatric disorders (2.25 ug/kg, n of N = 12): 2
Adverse event: Pyrexia (2.25 ug/kg, n of N = 12): 3
Adverse event: Rash (2.25 ug/kg, n of N = 12): 0
Adverse event: Renal and urinary disorders (2.25 ug/kg, n of N = 12): 1
Adverse event: Respiratory failure (2.25 ug/kg, n of N = 12): 0
Adverse event: Respiratory, thoracic and mediastinal disorders (2.25 ug/kg, n of N = 12): 3
Adverse event: Skin and subcutaneous tissue disorders (2.25 ug/kg, n of N = 12): 3
Adverse event: Stomatitis (2.25 ug/kg, n of N = 12): 0
Adverse event: Tachycardia (2.25 ug/kg, n of N = 12): 0
Adverse event: Thrombocythaemia (2.25 ug/kg, n of N = 12): 0
Adverse event: Thrombocytopenia (2.25 ug/kg, n of N = 12): 0
Adverse event: Tinnitus (2.25 ug/kg, n of N = 12): 0
Adverse event: Vascular disorders (2.25 ug/kg, n of N = 12): 2
Adverse event: Vomiting (2.25 ug/kg, n of N = 12): 6
Adverse event: Weight decreased (2.25 ug/kg, n of N = 12): 0
Serious adverse event: Abdominal pain (2.25 ug/kg, n of N = 12): 0
Serious adverse event: Acute myocardial infarction (2.25 ug/kg, n of N = 12): 0
Serious adverse event: Anorexia (2.25 ug/kg, n of N = 12): 0
Serious adverse event: Atrial fibrillation (2.25 ug/kg, n of N = 12): 0
Serious adverse event: Blood and lymphatic system disorders (2.25 ug/kg, n of N = 12): 1
Serious adverse event: Blood creatinine increased (2.25 ug/kg, n of N = 12): 1
Serious adverse event: Cardiac disorders (2.25 ug/kg, n of N = 12): 0
Serious adverse event: Cardiac failure (2.25 ug/kg, n of N = 12): 0
Serious adverse event: Dehydration (2.25 ug/kg, n of N = 12): 1
Serious adverse event: Dyspnoea (2.25 ug/kg, n of N = 12): 1
Serious adverse event: Fatigue (2.25 ug/kg, n of N = 12): 0
Serious adverse event: Febrile neutropenia (2.25 ug/kg, n of N = 12): 1
Serious adverse event: Gastrointestinal disorders (2.25 ug/kg, n of N = 12): 1
Serious adverse event: General disorders and administration site conditions (2.25 ug/kg, n of N = 12): 0
Serious adverse event: Hyponatraemia (2.25 ug/kg, n of N = 12): 2
Serious adverse event: Investigations (2.25 ug/kg, n of N = 12): 1
Serious adverse event: Lung abscess (2.25 ug/kg, n of N = 12): 0
Serious adverse event: Metabolism and nutrition disorders (2.25 ug/kg, n of N = 12): 2
Serious adverse event: Nausea (2.25 ug/kg, n of N = 12): 0
Serious adverse event: Neutropenia (2.25 ug/kg, n of N = 12): 0
Serious adverse event: Pain (2.25 ug/kg, n of N = 12): 0
Serious adverse event: Pyrexia (2.25 ug/kg, n of N = 12): 0
Serious adverse event: Respiratory failure (2.25 ug/kg, n of N = 12): 0
Serious adverse event: Respiratory, thoracic and mediastinal disorders (2.25 ug/kg, n of N = 12): 1
Serious adverse event: Thrombocythaemia (2.25 ug/kg, n of N = 12): 0
Serious adverse event: Thrombocytopenia (2.25 ug/kg, n of N = 12): 0
Serious adverse event: Vomiting (2.25 ug/kg, n of N = 12): 1
Total no. subjects WITH ADVERSE EVENTS (2.25 ug/kg, n of N = 12): 10
Total no. subjects WITH SERIOUS ADVERSE EVENTS (2.25 ug/kg, n of N = 12): 3
Adverse event: Abdominal pain (3.0 ug/kg, n of N = 10): 2
Adverse event: Acute myocardial infarction (3.0 ug/kg, n of N = 10): 0
Adverse event: Alanine aminotransferase increased (3.0 ug/kg, n of N = 10): 1
Adverse event: Alopecia (3.0 ug/kg, n of N = 10): 2
Adverse event: Anemia (3.0 ug/kg, n of N = 10): 1
Adverse event: Anorexia (3.0 ug/kg, n of N = 10): 2
Adverse event: Anxiety (3.0 ug/kg, n of N = 10): 0
Adverse event: Arthralgia (3.0 ug/kg, n of N = 10): 1
Adverse event: Aspartate aminotransferase increased (3.0 ug/kg, n of N = 10): 1
Adverse event: Atrial fibrillation (3.0 ug/kg, n of N = 10): 0
Adverse event: Azotaemia (3.0 ug/kg, n of N = 10): 0
Adverse event: Blood and lymphatic system disorders (3.0 ug/kg, n of N = 10): 3
Adverse event: Blood creatinine increased (3.0 ug/kg, n of N = 10): 1
Adverse event: C-reactive protein increased (3.0 ug/kg, n of N = 10): 1
Adverse event: Cancer pain (3.0 ug/kg, n of N = 10): 0
Adverse event: Cardiac disorders (3.0 ug/kg, n of N = 10): 0
Adverse event: Cardiac failure (3.0 ug/kg, n of N = 10): 0
Adverse event: Chills (3.0 ug/kg, n of N = 10): 0
Adverse event: Confusional state (3.0 ug/kg, n of N = 10): 0
Adverse event: Constipation (3.0 ug/kg, n of N = 10): 4
Adverse event: Cough (3.0 ug/kg, n of N = 10): 0
Adverse event: Dehydration (3.0 ug/kg, n of N = 10): 1
Adverse event: Dermatitis acneiform (3.0 ug/kg, n of N = 10): 0
Adverse event: Diabetes mellitus non-insulin-dependent (3.0 ug/kg, n of N = 10): 0
Adverse event: Diarrhea (3.0 ug/kg, n of N = 10): 1
Adverse event: Dizziness (3.0 ug/kg, n of N = 10): 0
Adverse event: Dry skin (3.0 ug/kg, n of N = 10): 1
Adverse event: Dyspepsia (3.0 ug/kg, n of N = 10): 0
Adverse event: Dyspnoea (3.0 ug/kg, n of N = 10): 0
Adverse event: Ear and labyrinth disorders (3.0 ug/kg, n of N = 10): 1
Adverse event: Epistaxis (3.0 ug/kg, n of N = 10): 1
Adverse event: Eructation (3.0 ug/kg, n of N = 10): 0
